# Values quoted from earlier work in patent US6552014B2, “Methods of inhibiting platelet activation with selective serotonin reuptake inhibitors” (HeartDrug Research, L.L.C., priority 1999, dated 2003).
# Structures can show the parent of a compound that is named as a salt.
# Key:
# Conditions in all cases: cited from earlier work
# serotonin 5-HT2 receptor = tested on: serotonin 5-HT2 receptor
# [1] = tested on: central 2 alpha-adrenergic autoreceptors, and heteroreceptors
# [2] = tested on: serotonin 5-HT3 receptors
Structure (SMILES),"antagonism of serotonin 5-HT2 receptor, in words (serotonin 5-HT2 receptor)","antagonism of central 2 alpha-adrenergic autoreceptors and heteroreceptors, in words [1]","antagonism of serotonin 5-HT3 receptors, in words [2]"
CN1CCN2c3ncccc3Cc3ccccc3C2C1 (stereo not shown) [Mirtazapine],antagonist,potent antagonist,antagonist
"CCc1nn(CCCN2CCN(c3cccc(Cl)c3)CC2)c(=O)n1CCOc1ccccc1 [Nefazodone, 2-[3-[4-(3-chlorophenyl)-1-piperazinyl]propyl]-5-ether-2,4-dihydro-4-(2-phenoxyethyl)-3H-1,2,4-triazol-3-one monohydrochloride]",potent serotonin 5-HT2 receptor antagonist,,
